What was measured:
Format in all cases: cell-based
human LAT1 (SLC7A5) [1] = biological target: T1, human LAT1 (SLC7A5) (Homo sapiens, UniProt Q01650); test: Inhibition of LAT1 uptake of probe substrate gabapentin in MDCK-II cells; details: probe gabapentin 10 µM; positive control JPH203 10 µM
T1 construct: host or cells: MDCK-II
Procedure: (§1) Transport studies with human PepT1 (SLC15A1), LAT1 (SLC7A5) and MCT1 (SLC16A1) were conducted in MDCK-II cells expressing the human transporter or control cells expressing a vector with Green Fluorescence Protein. Cells were transfected using a proprietary, transient transfection system (OPTI-EXPRESSION Technology, BioIVT). The results from the control cells were used to correct for substrate permeation by routes other than the transporter being investigated in the study. […] Specifically, Net Transporter Mediated Substrate Uptake (pmol/min/cm^2) = (Cellular accumulation in the presence of the transporter) − (Mean cellular accumulation in the absence of the transporter). MDCK-II cells were maintained in DMEM with low glucose and 10% FBS. Cells were used at passages up to 40 were seeded at 60,000 ± 10,000 cells/well on 96-well plates approximately 24 h before transfection, and transport assays were performed approximately 48 h after transfection. […]
(§2) Transport studies with PepT1 were conducted in 96-well cell culture plate with wells containing a monolayer of MDCK-II cells grown on a permeable support and a corresponding 96-well receiver tray. […] Then a 30-µL sample was taken and mixed with 200 µL of scintillation fluid and scintillation counted (1450 Microbeta, Perkin-Elmer). […]

human LAT1 (SLC7A5) [2] = biological target: T1, human LAT1 (SLC7A5); test: LAT1-mediated cellular uptake in transfected MDCK-II cells; details: HBSS pH 7.4, 3 min, 37 °C
Procedure: as §1, §2

human MCT1 (SLC16A1) [3] = biological target: T2, human MCT1 (SLC16A1) (Homo sapiens, UniProt P53985); test: Inhibition of MCT1 uptake of probe substrate 2-thiophene glyoxylate in MDCK-II cells
T2 construct: host or cells: MDCK-II
T2 sequence (P53985 1-500): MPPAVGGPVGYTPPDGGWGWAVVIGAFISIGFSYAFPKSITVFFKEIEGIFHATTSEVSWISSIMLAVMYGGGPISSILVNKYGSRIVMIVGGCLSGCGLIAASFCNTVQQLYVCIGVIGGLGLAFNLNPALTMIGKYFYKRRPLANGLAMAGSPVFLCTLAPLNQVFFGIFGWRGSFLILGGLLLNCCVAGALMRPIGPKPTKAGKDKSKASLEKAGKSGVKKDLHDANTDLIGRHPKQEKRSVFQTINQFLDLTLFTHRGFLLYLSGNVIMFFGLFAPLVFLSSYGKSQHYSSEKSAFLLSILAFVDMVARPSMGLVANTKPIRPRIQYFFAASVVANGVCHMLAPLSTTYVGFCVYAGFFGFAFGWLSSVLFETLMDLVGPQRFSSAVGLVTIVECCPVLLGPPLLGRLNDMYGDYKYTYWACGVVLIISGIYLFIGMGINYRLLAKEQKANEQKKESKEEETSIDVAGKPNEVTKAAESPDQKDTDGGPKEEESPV
Procedure: (§3) Transport studies with human PepT1 (SLC15A1), LAT1 (SLC7A5) and MCT1 (SLC16A1) were conducted in MDCK-II cells expressing the human transporter or control cells expressing a vector with Green Fluorescence Protein. Cells were transfected using a proprietary, transient transfection system (OPTI-EXPRESSION Technology, BioIVT). The results from the control cells were used to correct for substrate permeation by routes other than the transporter being investigated in the study. […] Specifically, Net Transporter Mediated Substrate Uptake (pmol/min/cm^2) = (Cellular accumulation in the presence of the transporter) − (Mean cellular accumulation in the absence of the transporter). MDCK-II cells were maintained in DMEM with low glucose and 10% FBS. Cells were used at passages up to 40 were seeded at 60,000 ± 10,000 cells/well on 96-well plates approximately 24 h before transfection, and transport assays were performed approximately 48 h after transfection. Transport studies in MDCK-II cells were conducted in 96-well insert plates with permeable membrane (0.4 µm) and receiver tray (Millipore MultiScreen Filter 96-well).
Transport studies with PepT1 were conducted in 96-well cell culture plate with wells containing a monolayer of MDCK-II cells grown on a permeable support and a corresponding 96-well receiver tray. Cell plates are maintained at 37 °C in 5% CO2 atmosphere prior to initiation of the transport experiment. Pre-incubation was conducted in HBSS, pH 7.4. The transport experiments were conducted in HBSS with Bis–Tris, pH 5.5, without phenol red. Both pre-incubation and incubation were conducted at 37 °C. All final assay solutions of probe substrate, reference inhibitor or test article contain 0.5% (v/v) DMSO (vehicle control). The culture plate insert […] was washed with warm HBSS three times and then blotted dry. The culture plate wells […] were washed with warm HBSS three times. 100 µL of 37 °C HBSS pH 7.4 pre-incubation buffer to the apical compartment as follows: for the probe substrate transport assay, the HBSS contains vehicle; for the reference inhibition assay, the HBSS contains the reference inhibitor at the required concentration; for the test article assays, the HBSS in each well contains test compound at the specified concentration. The plates were incubated at 37 °C with orbital shaking at approximately 60 rpm for the pre-incubation (30 min), aspirated and then 100 µL of the experimental buffer was added. […] Then a 30-µL sample was taken and mixed with 200 µL of scintillation fluid and scintillation counted (1450 Microbeta, Perkin-Elmer). […]

human MCT1 (SLC16A1) [4] = biological target: T2, human MCT1 (SLC16A1); test: MCT1-mediated cellular uptake in transfected MDCK-II cells; details: 1 min, room temperature, Michaelis-Menten fit
Procedure: as §3
Transport studies with PepT1 were conducted in 96-well cell culture plate with wells containing a monolayer of MDCK-II cells grown on a permeable support and a corresponding 96-well receiver tray. Cell plates are maintained at 37 °C in 5% CO2 atmosphere prior to initiation of the transport experiment. Pre-incubation was conducted in HBSS, pH 7.4. The transport experiments were conducted in HBSS with Bis–Tris, pH 5.5, without phenol red. Both pre-incubation and incubation were conducted at 37 °C. All final assay solutions of probe substrate, reference inhibitor or test article contain 0.5% (v/v) DMSO (vehicle control). The culture plate insert […] was washed with warm HBSS three times and then blotted dry. The culture plate wells […] were washed with warm HBSS three times. […] Then a 30-µL sample was taken and mixed with 200 µL of scintillation fluid and scintillation counted (1450 Microbeta, Perkin-Elmer). […]

T1 sequence (Q01650 whole entry): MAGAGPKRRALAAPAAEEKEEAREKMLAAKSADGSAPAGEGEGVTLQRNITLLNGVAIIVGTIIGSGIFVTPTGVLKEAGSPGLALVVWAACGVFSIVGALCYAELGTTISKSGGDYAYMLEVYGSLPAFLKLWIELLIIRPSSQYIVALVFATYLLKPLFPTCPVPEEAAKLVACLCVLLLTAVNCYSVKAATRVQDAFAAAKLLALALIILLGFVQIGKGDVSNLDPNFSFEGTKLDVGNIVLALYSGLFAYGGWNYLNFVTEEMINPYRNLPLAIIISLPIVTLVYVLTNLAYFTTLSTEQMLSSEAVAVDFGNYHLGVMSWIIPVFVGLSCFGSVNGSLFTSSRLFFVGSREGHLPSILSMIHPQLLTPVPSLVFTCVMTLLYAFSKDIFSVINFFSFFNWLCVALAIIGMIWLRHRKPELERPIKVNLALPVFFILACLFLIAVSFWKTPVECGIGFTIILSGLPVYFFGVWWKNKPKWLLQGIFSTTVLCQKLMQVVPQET
T1 sequence (P08195 102-630 partner): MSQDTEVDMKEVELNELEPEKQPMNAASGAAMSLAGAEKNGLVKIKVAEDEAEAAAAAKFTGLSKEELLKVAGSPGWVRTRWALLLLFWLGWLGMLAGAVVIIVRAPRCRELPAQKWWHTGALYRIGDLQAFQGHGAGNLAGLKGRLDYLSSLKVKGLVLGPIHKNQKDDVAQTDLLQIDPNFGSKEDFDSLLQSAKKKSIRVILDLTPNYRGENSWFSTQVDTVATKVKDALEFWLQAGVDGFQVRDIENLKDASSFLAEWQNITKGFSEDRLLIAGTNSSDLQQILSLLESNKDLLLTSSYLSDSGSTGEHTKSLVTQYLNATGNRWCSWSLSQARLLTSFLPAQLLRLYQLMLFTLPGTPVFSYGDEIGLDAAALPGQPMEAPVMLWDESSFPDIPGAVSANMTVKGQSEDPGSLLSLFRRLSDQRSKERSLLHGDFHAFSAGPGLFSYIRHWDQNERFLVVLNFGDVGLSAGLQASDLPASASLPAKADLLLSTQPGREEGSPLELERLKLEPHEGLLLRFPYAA

Question: With `CC(=O)N[C@@H](CC(C)C)C(=O)O` [N-acetyl-L-leucine] as the compound, how does the “inhibitor of LAT1” value (human LAT1 (SLC7A5) [1]) read?
Answer: Its value is “nor an inhibitor”.

Question: What about the “substrate of LAT1 (uptake)” value (human LAT1 (SLC7A5) [2]) of the same compound?
Answer: The value was “not transported”.

Question: And the “substrate of LAT1 (uptake)” value (human LAT1 (SLC7A5) [2]; listed as N-acetyl-leucine)?
Answer: Its value is “not a substrate”.

Question: What about the Ki (human MCT1 (SLC16A1) [3]; Cheng-Prusoff equation from IC50, competitive inhibition assumed, read-out: affinity (Ki) MCT1) of the same compound?
Answer: The Ki was 4.3 mM.

Question: What about the IC50 (human MCT1 (SLC16A1) [3]; probe 2-thiophene glyoxylate 500 µM, positive control phloretin 500 µM) of the same compound?
Answer: Its IC50 is 15 mM.

Question: What about the “Vmax MCT1 uptake” value (human MCT1 (SLC16A1) [4]) of the same compound?
Answer: Its value is 224.

From article PMC8338929, “Acetylation turns leucine into a drug by membrane transporter switching” (Scientific Reports, 2021)
